# Results reported in US5200409A, “Composition and use of substituted 1,3-dithiolo-and 1,4-dithiinoquinoxalines as an antimicrobial” (The Dow Chemical Company, priority 1992, dated 1993).
# Where two headings read alike, the source gives them in different places.
# What was measured:
# [1] = tested on: Aureobasidium pullulan (Ap); assay: Minimum inhibitory concentration (MIC) in malt yeast agar; type: cell-based, Aureobasidium pullulan ATCC 16622; conditions: read-out: Minimum Inhibitory Concentration, Ap
# How it was run: (§1)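 Steps: compound added to malt yeast agar at 48° C (500–1.0 ppm, plus untreated control); plates poured and dried 24 h; inoculated by replicator with diluted suspensions from 7-day slants; incubated 30° C, read at 72 h.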
# [2] = tested on: Enterobacter aerogenes (Ea); assay: Minimum inhibitory concentration (MIC) in nutrient agar; type: cell-based, Enterobacter aerogenes ATCC 13048; conditions: Klebsiella aerogenes
# How it was run: (§2)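 Growth inhibition was read visually after 48 h at 30° C on nutrient agar plates containing test compound at 500, 250, 100, 50, 25, 10, 5, 2.5, 1.0 or 0 ppm. Plates at pH 6.8 and pH 8.2 were inoculated with bacterial suspensions of 10^8 CFU/ml.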
# [3] = tested on: Staphylococcus aureus (Sa); assay: as above; type: cell-based, Staphylococcus aureus ATCC 6538
# How it was run: as §2
# [4] = tested on: Pseudomonas aeruginosa (Pa); assay: as above; type: cell-based, Pseudomonas aeruginosa ATCC 10145; conditions: 48 hours
# How it was run: as §2
# Candida albicans (Ca) = assay: Minimum inhibitory concentration (MIC) in malt yeast agar; type: cell-based, Candida albicans ATCC 10231; conditions: read-out: Minimum Inhibitory Concentration, Ca
# How it was run: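 Compound dispersed in malt yeast agar at final 500, 250, 100, 50, 25, 10, 5, 2.5, 1.0 and 0 ppm (from 1% acetone/water solution); plates dried 24 h, then inoculated with saline/octylphenoxy polyethoxy ethanol suspensions of 7-day cultures diluted 1:9. Incubated at 30° C; read at 48 h for yeast, 72 h for fungi.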
# marine organisms = assay: Marine antifouling rating of coated test panels exposed to the marine environment; conditions: scale 10 (completely free of growth) to 0 (completely covered); for Marine Antifouling Rating, 3 Week Test, Top Panel / Marine Antifouling Rating, 3 Week Test, Bottom Panel: 3 weeks; for Marine Antifouling Rating, 3 Week Test, Top Panel / Marine Antifouling Rating, 6 Week Test, Top Panel: topside, white background; for Marine Antifouling Rating, 3 Week Test, Bottom Panel / Marine Antifouling Rating, 6 Week Test, Bottom Panel: underside, black background; for Marine Antifouling Rating, 6 Week Test, Top Panel / Marine Antifouling Rating, 6 Week Test, Bottom Panel: 6 weeks
# Description: Test panels are prepared from clear, rigid polyvinyl chloride film that is 0.381×10^-3 m thick and has one textured surface. The test panels are 0.1524 m by 0.1524 m squares that have 0.00635 m holes punched at corners on 0.127 m centers. A 0.102 square template, with a 0.067 m diameter hole at the center, is attached to the center of the textured surface of the test panels.
# A candidate marine antifoulant compound (1.0 g) is stirred into a resinous latex binder (9.0 g). A portion of the compound/binder mixture (1.5 g) is added to the center of the test panel and uniformly spread over the circular area inside the template.
# Water is added dropwise as needed to properly spread the compound/binder mixture. The template prevents the compound/binder mixture from spreading beyond the uncovered area. The test panel is allowed to sit for between ten to thirty minutes until the edge of the spread compound/binder mixture has dried. The template is then removed. The test panel is then allowed to dry for 8 to 12 hours at room temperature.
# Two test panels are prepared for each candidate marine antifoulant compound. Two control test panels are also prepared by only treating with the resinous latex binder. One test panel of each candidate marine […] compound is attached over a white background to the topside of an exposure support apparatus. The second test panel is attached over a black background to the underside of the exposure support apparatus. The exposure support apparatus is placed horizontally 0.0254 m under a marine surface with the white background topside facing up. The exposure support apparatus is exposed to the marine environment for both 3 and 6 weeks during which time the control test panels become substantially covered with mature marine organism growth on both the topside and underside exposures.
# After being removed from the exposure support apparatus, each test panel is inspected and rated for marine organism growth on both the treated and untreated areas of the test panel. The marine organisms present on the treated and untreated areas are noted. The presence of algea spores and bacterial slime are noted but not included in rating each test panel. The test panels are rated on a scale from 10 (representing completely free of marine organism growth) to 0 (representing completely covered with marine organism growth).
# Proteus vulgaris (Pv) = assay: Minimum inhibitory concentration (MIC) in nutrient agar; type: cell-based, Proteus vulgaris ATCC 881
# How it was run: as §2
# Trichoderma viride (Tv) = assay: Minimum inhibitory concentration (MIC) in malt yeast agar; type: cell-based, Trichoderma viride ATCC 8678; conditions: read-out: Minimum Inhibitory Concentration, Tv
# How it was run: as §1
# [5] = 48 h, pH 6.8, read-out: Minimum Inhibitory Concentration, Ea
# [6] = 48 h, pH 8.2, read-out: Minimum Inhibitory Concentration, Ea
# [7] = 48 h, pH 8.2, read-out: Minimum Inhibitory Concentration, Sa
# [8] = pH 6.8, nutrient agar, 30° C., 48 hours, read-out: Minimum Inhibitory Concentration, Sa
# [9] = malt yeast agar, 30° C., 48 hours for yeast
# [10] = 48 h, pH 6.8, read-out: Minimum Inhibitory Concentration, Pv
# [11] = 48 h, pH 8.2, read-out: Minimum Inhibitory Concentration, Pv
# [12] = malt yeast agar, 30° C., 48 hours for yeast and 72 hours for fungi
# [13] = 48 h, pH 6.8, read-out: Minimum Inhibitory Concentration, Sa
# [14] = pH 8.2, nutrient agar, 30° C., 48 hours, read-out: Minimum Inhibitory Concentration, Sa
SMILES,MIC [1] [µg/mL],"MIC [2, 5] [µg/mL]","MIC [2, 6] [µg/mL]","MIC [3, 7] [µg/mL]","MIC [3, 8] [µg/mL]","MIC ([4]; pH 6.8, 30° C.) [µg/mL]","MIC ([4]; pH 8.2, 30° C.) [µg/mL]",MIC (Candida albicans (Ca); [9]) [µg/mL],"Marine Antifouling Rating, 3 Week Test, Top Panel (marine organisms)","Marine Antifouling Rating, 3 Week Test, Bottom Panel (marine organisms)","Marine Antifouling Rating, 6 Week Test, Top Panel (marine organisms)","Marine Antifouling Rating, 6 Week Test, Bottom Panel (marine organisms)",MIC (Proteus vulgaris (Pv); [10]) [µg/mL],MIC (Proteus vulgaris (Pv); [11]) [µg/mL],"MIC [1, 12] [µg/mL]",MIC (Trichoderma viride (Tv); 72 h) [µg/mL],"MIC [3, 13] [µg/mL]",MIC (Candida albicans (Ca); 48 h) [µg/mL],further results
"N#CC(C#N)=C1Sc2nc3ccc([N+](=O)[O-])cc3nc2S1 [L, 6-nitro-1,3-dithiolo-(4,5-b)-quinoxaline-2-ylidene-propanedinitrile]",5,> 500,> 500,> 500,100,> 500,> 500,10,7,7,9,0,> 500,> 500,,,,,
"N#CC1=C(C#N)Sc2nc3ccccc3nc2S1 [E, 1,4-dithiino-(2,3-b)-quinoxaline-2,3-dicarbonitrile]",,> 500,> 500,< 10,25,> 500,> 500,< 10,8,4,9,0,> 500,> 500,< 10,100,,,
"N#CC(C#N)=C1Sc2nc3cc([N+](=O)[O-])c([N+](=O)[O-])cc3nc2S1 [M, 6,7-dinitro-1,3-dithiolo-(4,5-b)-quinoxaline-2-ylidene-propanedinitrile]",2.5,> 500,> 500,100,,500,> 500,,9,9,5,1,> 500,> 500,,10,< 10,2.5,
"N#CC1=C(C#N)Sc2nc3cc([N+](=O)[O-])c([N+](=O)[O-])cc3nc2S1 [B, 7,8-Dinitro-1,4-dithiino-(2,3-b)quinoxaline-2,3-dicarbonitrile]",5,> 500,> 500,< 10,,> 500,> 500,,6,3,3,0,> 500,> 500,,50,< 10,25,
"N#CC(C#N)=C1Sc2nc3ccc(Cl)cc3nc2S1 [O, 6-chloro-1,3-dithiolo-(4,5-b)-quinoxaline-2-ylidene-propanedinitrile]",,> 500,> 500,> 500,> 500,> 500,> 500,> 500,0,2,6,0,> 500,> 500,500,,,,"MIC (Trichoderma viride (Tv); malt yeast agar, 30° C., 72 hours for fungi): > 500 µg/mL"
"N#CC1=C(C#N)Sc2nc3cc([N+](=O)[O-])ccc3nc2S1 [A, 7-nitro-1,4-dithiino-(2,3-b)-quinoxaline-2,3-dicarbonitrile]",2.5,,> 500,,,100,> 500,,9,9,8,3,,> 500,,10,< 10,2.5,"MIC ([2]; pH 6.8, nutrient agar, 30° C., 48 hours, read-out: Minimum Inhibitory Concentration, Ea): 100 µg/mL; MIC [3, 14]: 100 µg/mL; MIC (Proteus vulgaris (Pv); pH 6.8, nutrient agar, 30° C., 48 hours, read-out: Minimum Inhibitory Concentration, Pv): 50 µg/mL"
"Cc1ccc2nc3c(nc2c1)SC(C#N)=C(C#N)S3 [D, 7-Methyl-1,4-dithiino-(2,3-b)quinoxaline-2,3-dicarbonitrile]",,> 500,> 500,500,100,> 500,> 500,,4,3,3,0,> 500,> 500,25,100,,50,
"N#CC1=C(C#N)Sc2nc3cc(Cl)ccc3nc2S1 [C, 7-chloro-1,4-dithiino-(2,3-b)-quinoxaline-2,3-dicarbonitrile]",,> 500,> 500,,,> 500,> 500,< 10,0,9,5,0,> 500,> 500,< 10,250,50,,"MIC [3, 14]: 50 µg/mL"
